Data set [1] can be described thus: log P by HPLC on reversed-phase columns (EEC Directive 79/831 Annex V.A8). It counts as physicochemical.
Data set [2] relates to larvae of the mustard beetle (Phaedon cochleariae). The data set is described as follows: Phaedon test (PHAECO spray treatment). The settings on record: for pest or weed control at 100 g/ha: Phaedon cochleariae, 168 h, read-out: activity in % (beetle larvae killed).
In data set [3] the test system is caterpillars of the armyworm (Spodoptera frugiperda). The data set is described as follows: Spodoptera frugiperda test (SPODFR spray treatment). It counts as in vivo. To be noted: for pest or weed control at 100 g/ha: Spodoptera frugiperda, 168 h, read-out: activity in % (caterpillars killed).
[4] abbreviates: reversed-phase C18 HPLC column, pH 2.7, HPLC reversed-phase C18, acidic range pH 2.7 (HCOOH), only or first value of the cell, read-out: log P.
Setting [5] is: application rate 100 g/ha, after 7 days.

From patent US8791143B2, “Anthranilic diamide derivatives having cyclic side-chains” (priority 2010, dated 2014) come the findings set out here.

Like-named read-outs stand apart in the source and are kept apart here.

Turning to `Cc1cc(C#N)cc(C(=O)NCc2ccccc2OC(F)F)c1NC(=O)c1cc(Cn2nnc(C(F)(F)F)n2)nn1-c1ccccc1Cl` [Example 190], in data set [1] (setting [4]), the chromatographic logP amounted to 3.88. Moreover, the pest or weed control at 100 g/ha in data set [2] and in data set [3] (setting [5]) was 100% throughout.
On to `Cc1cc(C#N)cc(C(=O)NCc2ccc(OC(F)F)cc2)c1NC(=O)c1cc(Cn2nnc(C(F)(F)F)n2)nn1-c1ccccc1Cl` [Example 191], for which the chromatographic logP in data set [1] (setting [4]) worked out at 3.81. For the same compound, the pest or weed control at 100 g/ha in data set [2] and in data set [3] (setting [5]) was 100% each time.
Take `Cc1cc(C#N)cc(C(=O)NCc2ccc(OC(F)(F)F)cc2)c1NC(=O)c1cc(Cn2nnc(C(F)(F)F)n2)nn1-c1ccccc1Cl` [Example 192]: the chromatographic logP in data set [1] (setting [4]) was determined as 3.98. Moreover, the pest or weed control at 100 g/ha in data set [2] and in data set [3] (setting [5]) was 100% each time.
Take `O=C(NCc1cccc(OC(F)(F)F)c1)c1cc(Br)cc(Cl)c1NC(=O)c1cc(Cn2nnc(C(F)(F)F)n2)nn1-c1ncccc1Cl` [Example 194]: the chromatographic logP in data set [1] (setting [4]) turned out to be 4.32. In addition, the pest or weed control at 100 g/ha in data set [2] and in data set [3] (setting [5]) was 100% each time.
In the case of `O=C(NCc1ccc(OC(F)(F)F)cc1)c1cc(Br)cc(Cl)c1NC(=O)c1cc(Cn2nnc(C(F)(F)F)n2)nn1-c1ncccc1Cl` [Example 195], the chromatographic logP in data set [1] (setting [4]) stood at 4.31. Also, the pest or weed control at 100 g/ha in data set [2] and in data set [3] (setting [5]) was 100% throughout.
`Cc1ccc(Cl)c(C(=O)NCc2ccccc2Cl)c1NC(=O)c1cc(Cn2nnc(C(F)(F)F)n2)nn1-c1ncccc1Cl` [Example 196]: the chromatographic logP in data set [1] (pH 2.7, log P) is 3.64. For the same compound, the pest or weed control at 100 g/ha in data set [2] and in data set [3] was 100% in each case.
Consider `Cc1ccc(Cl)c(C(=O)NCc2cccc(Cl)c2)c1NC(=O)c1cc(Cn2nnc(C(F)(F)F)n2)nn1-c1ncccc1Cl` [Example 197], for which the chromatographic logP in data set [1] (pH 2.7, log P) is 3.74. Moreover, the pest or weed control at 100 g/ha in data set [2] and in data set [3] was 100% each time.
Compound `Cc1c(F)ccc(C(=O)NCc2ccccc2Cl)c1NC(=O)c1cc(Cn2nnc(C(F)(F)F)n2)nn1-c1ncccc1Cl` [Example 202] came in with a chromatographic logP in data set [1] (pH 2.7, log P) of 3.79. The pest or weed control at 100 g/ha in data set [2] and in data set [3] was 100% each time.
Compound `O=C(NCc1ccccc1Cl)c1cc(Br)cc(Cl)c1NC(=O)c1cc(Cn2nnc(C(F)(F)F)n2)nn1-c1ncccc1Cl` [Example 203] had a chromatographic logP in data set [1] (pH 2.7, log P) of 4.07. For the same compound, the pest or weed control at 100 g/ha in data set [2] and in data set [3] was 100% throughout.
On to `O=C(NCc1cccc(Cl)c1)c1cc(Br)cc(Cl)c1NC(=O)c1cc(Cn2nnc(C(F)(F)F)n2)nn1-c1ncccc1Cl` [Example 204], for which the chromatographic logP in data set [1] (pH 2.7, log P) was 4.09. Besides, the pest or weed control at 100 g/ha in data set [2] and in data set [3] was 100% throughout.
With `O=C(NCc1ccc(Cl)cc1)c1cc(Br)cc(Cl)c1NC(=O)c1cc(Cn2nnc(C(F)(F)F)n2)nn1-c1ncccc1Cl` [Example 205], the chromatographic logP in data set [1] (pH 2.7, log P) came out at 4.08. Moreover, the pest or weed control at 100 g/ha in data set [2] and in data set [3] was 100% each time.
For `O=C(NCc1cccc(Cl)c1)c1cc(Cl)cc(F)c1NC(=O)c1cc(Cn2nnc(C(F)(F)F)n2)nn1-c1ncccc1Cl` [Example 207], the chromatographic logP in data set [1] (setting [4]) was 3.89. Moreover, the pest or weed control at 100 g/ha in data set [2] and in data set [3] (setting [5]) was 100% in each case.
Usually log P stands for a log measure of how a compound divides between an organic and an aqueous phase. Turning to `O=C(NCc1ccc(Cl)cc1)c1cc(Cl)cc(F)c1NC(=O)c1cc(Cn2nnc(C(F)(F)F)n2)nn1-c1ncccc1Cl` [Example 208], the “log P” value in data set [1] (HPLC reversed-phase C18, acidic range pH 2.7 (HCOOH), only or first value of the cell) is recorded as 3.95. Further, the “activity in % (beetle larvae killed)” value in data set [2] (setting [5]) was determined as 100%. The “activity in % (caterpillars killed)” value in data set [3] (setting [5]) is listed as 100%.
For the compound `O=C(NCc1ccccc1OC(F)(F)F)c1cc(Cl)cc(F)c1NC(=O)c1cc(Cn2nnc(C(F)(F)F)n2)nn1-c1ncccc1Cl` [Example 209], in data set [1] (setting [4]), the chromatographic logP came to 4.12. The pest or weed control at 100 g/ha in data set [2] and in data set [3] (setting [5]) was 100% in each case.
`O=C(NCc1cccc(OC(F)(F)F)c1)c1cc(Cl)cc(F)c1NC(=O)c1cc(Cn2nnc(C(F)(F)F)n2)nn1-c1ncccc1Cl` [Example 210]: the chromatographic logP in data set [1] (setting [4]) is 4.22. Further, the pest or weed control at 100 g/ha in data set [2] and in data set [3] (setting [5]) was 100% throughout.
Turning to `O=C(NCc1ccc(OC(F)(F)F)cc1)c1cc(Cl)cc(F)c1NC(=O)c1cc(Cn2nnc(C(F)(F)F)n2)nn1-c1ncccc1Cl` [Example 211], the chromatographic logP in data set [1] (setting [4]) worked out at 4.21. Moreover, the pest or weed control at 100 g/ha in data set [2] and in data set [3] (setting [5]) was 100% each time.
For the compound `Cc1cc(C#N)cc(C(=O)NCc2cccc(OC(F)F)c2)c1NC(=O)c1cc(Cn2nnc(C(F)(F)F)n2)nn1-c1ccccc1Cl` [Example 212], the chromatographic logP in data set [1] (setting [4]) is 3.67. In addition, the pest or weed control at 100 g/ha in data set [2] and in data set [3] (setting [5]) was 100% each time.
Consider `Cc1cc(C#N)cc(C(=O)NCc2cccc(OC(F)(F)F)c2)c1NC(=O)c1cc(Cn2nnc(C(F)(F)F)n2)nn1-c1ccccc1Cl` [Example 213], for which the chromatographic logP in data set [1] (setting [4]) was 4.18. Besides, the pest or weed control at 100 g/ha in data set [2] and in data set [3] (setting [5]) was 100% each time.
Regarding `Cc1cc(C#N)cc(C(=O)NCc2cccc(OC(F)(F)F)c2)c1NC(=O)c1cc(Cn2nnc(C(F)(F)F)n2)nn1-c1c(Cl)cccc1Cl` [Example 214], the chromatographic logP in data set [1] (setting [4]) is 4.23. The pest or weed control at 100 g/ha in data set [2] and in data set [3] (setting [5]) was 100% in each case.
In the case of `Cc1cc(C#N)cc(C(=O)NCc2cccc(OC(F)F)c2)c1NC(=O)c1cc(Cn2nnc(C(F)(F)F)n2)nn1-c1c(Cl)cccc1Cl` [Example 215], the chromatographic logP in data set [1] (setting [4]) was determined as 3.78. Further, the pest or weed control at 100 g/ha in data set [2] and in data set [3] (setting [5]) was 100% throughout.
Turning to `Cc1cc(C#N)cc(C(=O)NCc2ccc(OC(F)F)cc2)c1NC(=O)c1cc(Cn2nnc(C(F)(F)F)n2)nn1-c1c(Cl)cccc1Cl` [Example 216], in data set [1] (setting [4]), the chromatographic logP stood at 4.1. Moreover, the pest or weed control at 100 g/ha in data set [2] and in data set [3] (setting [5]) was 100% throughout.
As for `Cc1cc(C#N)cc(C(=O)NCc2ccccc2OC(F)(F)F)c1NC(=O)c1cc(Cn2nnc(C(F)(F)F)n2)nn1-c1ccccc1Cl` [Example 217], in data set [1] (setting [4]), the chromatographic logP turned out to be 4.28. In addition, the pest or weed control at 100 g/ha in data set [2] and in data set [3] (setting [5]) was 100% each time.
`Cc1cccc(CNC(=O)c2cc(Cl)cc(C)c2NC(=O)c2cc(Cn3nnc(C(F)(F)F)n3)nn2-c2ncccc2Cl)n1` [Example 225]: the chromatographic logP in data set [1] (pH 2.7, log P) was 2.24. Also, the pest or weed control at 100 g/ha in data set [2] and in data set [3] was 100% in each case.
Take `Cc1cc(Cl)cc(C(=O)NCc2ccc(C(F)(F)F)cn2)c1NC(=O)c1cc(Cn2nnc(C(F)(F)F)n2)nn1-c1ncccc1Cl` [Example 226]: the chromatographic logP in data set [1] (setting [4]) stood at 3.7. Also, the pest or weed control at 100 g/ha in data set [2] and in data set [3] (setting [5]) was 100% each time.
For the compound `CCc1cccc(CNC(=O)c2cc(Cl)cc(C)c2NC(=O)c2cc(Cn3nnc(C(F)(F)F)n3)nn2-c2ncccc2Cl)n1` [Example 228], the chromatographic logP in data set [1] (pH 2.7, log P) was 2.22. Besides, the pest or weed control at 100 g/ha in data set [2] and in data set [3] was 100% throughout.
